ChEMBL document CHEMBL3994598, “Silychristin: Skeletal Alterations and Biological Activities” (J Nat Prod, 2016)

How the values were obtained:
[1] = Antioxidant activity assessed as trolox equivalent of ABTS radical scavenging activity at 100 uM incubated for >= 5 mins; format: functional
MDA-MB-231 = test: Cytotoxicity against human MDA-MB-231 cells at 0.0003 to 100 uM after 48 hrs by ATPlite assay; format: cell-based; conditions: mda-mb-231, 48 h
[2] = Cytotoxicity against human primary prostate mesenchymal cells at 0.0003 to 100 uM after 48 hrs by ATPlite assay; format: cell-based; conditions: primary prostate mesenchymal cell
HepG2 = test: Cytotoxicity against human HepG2 cells at 0.0003 to 100 uM after 48 hrs by ATPlite assay; format: cell-based; conditions: hepg2, 48 h
CAL-51 = test: Cytotoxicity against human CAL51 at 0.0003 to 100 uM after 48 hrs by ATPlite assay; format: cell-based; conditions: cal-51, 48 h
BJ = test: Cytotoxicity against human BJ cells at 0.0003 to 100 uM after 48 hrs by ATPlite assay; format: cell-based
[3] = Partition coefficient, logP of the compound in octan-1-ol and phosphate buffer at pH 7.4 at 25 degC after 2 hrs by UV-vis spectrometer; format: physicochemical; conditions: octan-1-ol/phosphate buffer
K562 = test: Cytotoxicity against human K562 cells at 0.0003 to 100 uM after 48 hrs by ATPlite assay; format: cell-based; conditions: k562, 48 h
HL-60 = test: Cytotoxicity against human HL60 cells at 0.0003 to 100 uM after 48 hrs by ATPlite assay; format: cell-based; conditions: hl-60, 48 h
PC-3 = test: Cytotoxicity against human PC3 cells at 0.0003 to 100 uM after 48 hrs by ATPlite assay; format: cell-based; conditions: pc-3, 48 h
[4] = Antioxidant activity assessed as DPPH radical scavenging activity after 30 mins; format: functional
[5] = Antiradical activity assessed as gallic acid equivalents of Foline-Ciocalteu reagent reducing capacity at 1 mM preincubated for 5 mins followed by Na2CO3 addition measured after 90 mins
TERT-RPE1 = test: Cytotoxicity against human RPE1 cells at 0.0003 to 100 uM after 48 hrs by ATPlite assay; format: cell-based; conditions: tert-rpe1, 48 h
MCF7 = test: Cytotoxicity against human MCF7 cells at 0.0003 to 100 uM after 48 hrs by ATPlite assay; format: cell-based; conditions: mcf7, 48 h
Liver = test: Antioxidant activity against tert-butyl hydroperoxide-induced lipoperoxidation in rat liver microsomal membranes incubated for 60 mins by TBARS assay; format: functional, cell membranes, Microsomal Membrane; conditions: 1 h

SMILES | logD at 2 h [3] | IC50 [4] | IC50 (Liver) | Activity [1] | Activity (MDA-MB-231) | Activity [2] | Activity (HepG2) | Activity (CAL-51) | Activity (BJ) | Activity (K562) | Activity (HL-60) | Activity (PC-3) | Activity [5] | Activity (TERT-RPE1) | Activity (MCF7)
COc1cc(-c2oc3c(O)cc(-c4oc5cc(O)cc(O)c5c(=O)c4O)cc3c2C)ccc1O | -0.24 | 3.56 µM | 6.43 µM | 1.43 equiv | Toxic | Toxic | Toxic | Toxic | Toxic | Toxic | Toxic | Toxic | 2.13 equiv | Toxic | Toxic
COc1cc([C@@H]2Oc3c(O)cc([C@@H]4CC(=O)c5c(O)cc(O)cc5O4)cc3[C@H]2CO)ccc1O | -0.37 | 43 µM | 12.6 µM | 0.77 equiv | Toxic | Toxic | Toxic | Toxic | Toxic | Toxic | Toxic | Toxic | 1.24 equiv | Toxic | Toxic
COc1cc([C@@H]2Oc3c(O)cc(-c4oc5cc(O)cc(O)c5c(=O)c4O)cc3[C@H]2CO)ccc1O | -1.01 | 4.88 µM | 5.45 µM | 1.79 equiv | Toxic | Toxic | Toxic | Toxic | Toxic | Toxic | Toxic | Toxic | 3.06 equiv | Toxic | Toxic
COc1cc(-c2oc3c(O)cc([C@H]4Oc5cc(O)cc(O)c5C(=O)[C@@H]4O)cc3c2C)ccc1O | -0.74 | 17.9 µM | 4.12 µM | 0.99 equiv | Toxic | Toxic | Toxic | Toxic | Toxic | Toxic | Toxic | Toxic | 1.74 equiv | Toxic | Toxic
CC[C@@]1(O)C(=O)OCc2c1cc1n(c2=O)Cc2cc3ccccc3nc2-1 [CAMPTOTHECIN] | – | – | – | – | Toxic | Toxic | Toxic | Toxic | Toxic | Toxic | Toxic | Toxic | – | Toxic | Toxic
COc1cc([C@H]2Oc3cc([C@H]4Oc5cc(O)cc(O)c5C(=O)[C@@H]4O)ccc3O[C@@H]2CO)ccc1O [SILYBIN A] | – | – | – | – | Toxic | Toxic | Toxic | Toxic | Toxic | Toxic | Toxic | Toxic | – | Toxic | Toxic
COc1cc([C@@H]2Oc3cc([C@H]4Oc5cc(O)cc(O)c5C(=O)[C@@H]4O)ccc3O[C@H]2CO)ccc1O [SILYBIN B] | – | – | – | – | Toxic | Toxic | Toxic | Toxic | Toxic | Toxic | Toxic | Toxic | – | Toxic | Toxic

Second part, led by results:

logD at 2 h [3] | IC50 [4] | IC50 (Liver) | SMILES | Activity [1] | Activity (MDA-MB-231) | Activity [2] | Activity (HepG2) | Activity (CAL-51) | Activity (BJ) | Activity (K562) | Activity (HL-60) | Activity (PC-3) | Activity [5] | Activity (TERT-RPE1) | Activity (MCF7)
– | 553 µM | 67 µM | COc1cc(C2Oc3cc([C@H]4Oc5cc(O)cc(O)c5C(=O)[C@@H]4O)ccc3OC2CO)ccc1O (mixture of isomers) [SILIBININ] | 0.47 equiv | – | – | – | – | – | – | – | – | 0.92 equiv | – | –
– | 9.32 µM | 13 µM | COc1cc(C2Oc3cc(-c4oc5cc(O)cc(O)c5c(=O)c4O)ccc3OC2CO)ccc1O (stereo not drawn) [DEHYDROSILYLBIN] | 0.56 equiv | Toxic | Toxic | Toxic | Toxic | Toxic | Toxic | Toxic | Toxic | 1.29 equiv | Toxic | Toxic
-0.47 | 53.1 µM | 36.7 µM | COc1cc([C@@H]2Oc3c(O)ccc([C@H]4Oc5cc(O)cc(O)c5C(=O)[C@@H]4O)c3[C@H]2CO)ccc1O [ISOSILYCHRISTIN] | 0.65 equiv | Non-Toxic | Non-Toxic | Non-Toxic | Non-Toxic | Non-Toxic | Non-Toxic | Non-Toxic | Non-Toxic | 1.74 equiv | Non-Toxic | Non-Toxic
-0.39 | 19 µM | 10.3 µM | COc1cc(C2Oc3c(O)cc([C@H]4Oc5cc(O)cc(O)c5C(=O)[C@@H]4O)cc3C2CO)ccc1O (stereo partly drawn) [SILICRISTIN] | 1.09 equiv | Non-Toxic | Non-Toxic | Non-Toxic | Non-Toxic | Non-Toxic | Non-Toxic | Non-Toxic | Non-Toxic | 1.49 equiv | Non-Toxic | Non-Toxic
